Values quoted from earlier work in patent US20060094003A1, “Acetylcholine-dependent current as a novel ionic target for atrial fibrillation” (priority 2004, published 2006).
pIC50: −log10 of the molar value.

Tests used:
Kir 3.1/3.4 currents = molecular target: T1, Kir 3.1/3.4 currents (Homo sapiens, UniProt P48544+P48549); settings: Jin & Lu, 1999; cited from earlier work
T1 sequence (P48549 1-501): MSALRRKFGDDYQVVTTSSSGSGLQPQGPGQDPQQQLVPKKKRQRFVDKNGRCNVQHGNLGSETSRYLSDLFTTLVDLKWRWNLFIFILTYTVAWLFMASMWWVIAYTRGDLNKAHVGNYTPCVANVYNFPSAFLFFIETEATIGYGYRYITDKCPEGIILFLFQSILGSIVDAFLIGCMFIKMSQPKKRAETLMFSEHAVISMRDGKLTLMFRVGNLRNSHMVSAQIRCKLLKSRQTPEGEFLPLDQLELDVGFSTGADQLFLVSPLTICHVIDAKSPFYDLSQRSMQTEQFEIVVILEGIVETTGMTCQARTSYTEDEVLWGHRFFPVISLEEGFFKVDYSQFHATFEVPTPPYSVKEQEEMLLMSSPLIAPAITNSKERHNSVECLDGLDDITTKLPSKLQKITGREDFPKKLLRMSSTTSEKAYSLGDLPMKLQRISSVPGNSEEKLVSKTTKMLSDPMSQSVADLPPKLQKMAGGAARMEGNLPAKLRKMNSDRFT
T1 sequence (P48544 1-419): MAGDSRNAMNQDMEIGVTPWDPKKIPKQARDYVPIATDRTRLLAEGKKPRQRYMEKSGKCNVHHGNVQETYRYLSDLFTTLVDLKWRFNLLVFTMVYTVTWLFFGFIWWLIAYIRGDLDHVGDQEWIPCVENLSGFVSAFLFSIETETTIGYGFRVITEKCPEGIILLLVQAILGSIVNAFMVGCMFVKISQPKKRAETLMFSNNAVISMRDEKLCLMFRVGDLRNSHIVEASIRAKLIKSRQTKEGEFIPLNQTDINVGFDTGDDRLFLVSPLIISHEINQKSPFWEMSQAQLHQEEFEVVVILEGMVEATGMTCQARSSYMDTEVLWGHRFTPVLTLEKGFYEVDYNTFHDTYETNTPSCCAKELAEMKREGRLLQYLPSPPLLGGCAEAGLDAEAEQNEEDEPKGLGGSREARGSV

Kir2.1 channels = molecular target: T2, Kir2.1 channels (Homo sapiens, UniProt P63252); settings: at micromolar concentrations; Jin & Lu, 1999; cited from earlier work
T2 sequence (P63252 1-427): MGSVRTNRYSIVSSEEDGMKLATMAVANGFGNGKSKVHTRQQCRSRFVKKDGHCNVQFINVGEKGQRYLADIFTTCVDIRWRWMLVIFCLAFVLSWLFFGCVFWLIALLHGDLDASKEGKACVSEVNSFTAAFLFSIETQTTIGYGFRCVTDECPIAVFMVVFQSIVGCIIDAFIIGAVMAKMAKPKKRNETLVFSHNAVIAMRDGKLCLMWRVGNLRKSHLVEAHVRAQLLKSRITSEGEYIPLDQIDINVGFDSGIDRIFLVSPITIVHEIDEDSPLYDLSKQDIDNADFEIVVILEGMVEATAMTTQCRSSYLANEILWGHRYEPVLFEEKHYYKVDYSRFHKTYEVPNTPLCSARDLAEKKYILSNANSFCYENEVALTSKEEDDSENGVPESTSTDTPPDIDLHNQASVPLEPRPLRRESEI

Ito = settings: at concentrations of 8 to 30 nM; cited from earlier work
IK1 = settings: at concentrations of 8 to 30 nM; cited from earlier work

For tertiapin-Q, the pIC50 (Kir 3.1/3.4 currents) is listed as 8.10, the “effect on Kir2.1 channels (in words)” value (Kir2.1 channels) is listed as “minimal effects” and the “effect on Ito (in words)” value (Ito) is listed as “no effect”. The “effect on IK1 (in words)” value (IK1) was “no effect”.
